What is called pIC50 is the IC50 on a negative log10 scale, so that one unit is a factor of ten.

pIC50: −log10 of the molar value. Some results are limits rather than exact numbers.

T1 sequence (Q01726 whole entry): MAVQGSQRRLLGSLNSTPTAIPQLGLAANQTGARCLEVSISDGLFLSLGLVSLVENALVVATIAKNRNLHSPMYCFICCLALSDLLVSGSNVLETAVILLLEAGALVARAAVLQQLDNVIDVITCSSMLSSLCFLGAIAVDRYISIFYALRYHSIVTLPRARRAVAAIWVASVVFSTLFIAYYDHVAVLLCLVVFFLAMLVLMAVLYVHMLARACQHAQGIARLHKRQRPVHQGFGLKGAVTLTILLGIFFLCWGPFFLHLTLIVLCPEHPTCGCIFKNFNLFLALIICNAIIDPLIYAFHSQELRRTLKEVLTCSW

The assay concerns the target T1, human MC1R (hMC1R) (Homo sapiens, UniProt Q01726).
T1 construct: purchased Perkin Elmer ES-195-M400UA
As to the kind of experiment: Human MC1R radioligand binding assay (displacement of 125I-labeled NDP-MSH, Perkin Elmer hMC1R membranes). The following applies: displacement of [125I]NDP-MSH, compounds tested as trifluoroacetate or hydrochloride salts or free base. The procedure: Assessments of compound binding to human MC1R (hMC1R)) by displacement of an ^125I-labeled NDP-MSH receptor ligand peptide were performed essentially as described in the data sheets produced by Perkin Elmer to accompany their frozen hMC1R membranes (Perkin Elmer catalog number ES-195-M400UA).
[^125I] NDP-MSH: radiolabeled in house and purified by HPLC:
Na ^125I (0.5 mCi, 17.4 Ci/mg) was added to 50 μL sodium phosphate (50 mM, pH 7.4) in an eppendorf tube precoated with IODOGEN. After incubation for 10 mins the phosphate buffer containing the iodine was added to NDP-MSH (10 ul at 1 mg/mL) in a separate eppendorf tube. This was incubated for a further 10 mins. The iodinated NDP-MSH was purified by HPLC on a Zorbax SB 300 column using solvent A: 0.05% TFA and solvent B: 90% acetonitrile 0.045% TFA with a linear gradient, 0-67% B over 60 mins.
Perkin Elmer frozen hMC1 membranes: catalog number ES-195-M400UA, 0.4 mL/vial; 400 microassays/vial, 0.78 mg/mL protein concentration
Vials of frozen membranes were thawed rapidly immediately before use, diluted with binding buffer and vortexed. Resuspended membranes were kept on ice until they were added to the wells of the plate.
Assays were performed in 96 well polypropylene plates. […] This was incubated for 1 hr at 37° C.
In the case of `CC[C@H](CN1CC[C@@H](CNC(=O)c2csc(-c3ccccc3)n2)N[C@@H](CCN2CCCCC2)C1=O)c1ccccc1` [Compound 178, N-(((3S,5S)-2-oxo-1-((S)-2-phenylbutyl)-3-(2-(piperidin-1-yl)ethyl)-1,4-diazepan-5-yl)methyl)-2-phenylthiazole-4-carboxamide], the pIC50 is more than 5.00.

For `NCCC[C@@H]1N[C@H](CNC(=O)c2ccc3cc(F)ccc3c2)CCN(CC(c2ccccc2)c2ccccc2)C1=O` [Compound 122, N-(((3S,5S)-3-(3-aminopropyl)-1-(2,2-diphenylethyl)-2-oxo-1,4-diazepan-5-yl)methyl)-6-fluoro-2-naphthamide], the pIC50 is more than 5.00.

With `NCCC[C@@H]1N[C@H](CNC(=O)/C=C/c2ccc(F)cc2)CCN(CC(c2ccccc2)c2ccccc2)C1=O` [Compound 121, (E)-N-(((3S,5S)-3-(3-aminopropyl)-1-(2,2-diphenylethyl)-2-oxo-1,4-diazepan-5-yl)methyl)-3-(4-fluorophenyl)acrylamide], the pIC50 is more than 5.00.

Regarding `O=C(/C=C/c1ccc(F)cc1)NC[C@@H]1CCN(CC(c2ccccc2)c2ccccc2)C(=O)[C@H](CCCNC2CCCCC2)N1` [Compound 127, (E)-N-(((3S,5S)-3-(3-(cyclohexylamino)propyl)-1-(2,2-diphenylethyl)-2-oxo-1,4-diazepan-5-yl)methyl)-3-(4-fluorophenyl)acrylamide], the pIC50 was more than 5.00.

Turning to `CC[C@H](CN1CC[C@@H](CNC(=O)c2ccccc2-c2ccc(Cl)cc2)N[C@@H](CCN2CCCCC2)C1=O)c1ccccc1` [Compound 179, 4′-chloro-N-(((3S,5S)-2-oxo-1-((S)-2-phenylbutyl)-3-(2-(piperidin-1-yl)ethyl)-1,4-diazepan-5-yl)methyl)biphenyl-2-carboxamide], the pIC50 was more than 5.00.

`N=C(N)NCCC[C@@H]1N[C@H](CNC(=O)c2ccc3ccccc3c2)CCN(CC(C(=O)Nc2ccccc2)c2ccccc2)C1=O` (stereo partly drawn) [Compound 147, N-(((3S,5S)-3-(3-guanidinopropyl)-2-oxo-1-(3-oxo-2-phenyl-3-(phenylamino)propyl)-1,4-diazepan-5-yl)methyl)-2-naphthamide]: the pIC50 was more than 5.00.

Consider `O=C(/C=C/c1ccc(Cl)cc1)NC[C@@H]1CCN(Cc2cc(Cl)cc(Cl)c2)C(=O)[C@H](CCN2CCCCC2)N1` [Compound 145, (E)-3-(4-chlorophenyl)-N-(((3S,5S)-1-(3,5-dichlorobenzyl)-2-oxo-3-(2-(piperidin-1-yl)ethyl)-1,4-diazepan-5-yl)methyl)acrylamide], for which the pIC50 was more than 5.00.

As to `N=C(N)NCCC[C@@H]1N[C@H](CNS(=O)(=O)c2ccc3ccccc3c2)CCN(CC(c2ccccc2)c2ccccc2)C1=O` [Compound 103, N-(((3S,5S)-1-(2,2-diphenylethyl)-3-(3-guanidinopropyl)-2-oxo-1,4-diazepan-5-yl)methyl)naphthalene-2-sulfonamide], the pIC50 was more than 5.00.

Regarding `CC(C)(NC(=O)/C=C/c1ccc(Cl)cc1)[C@@H]1CCN(CC(c2ccccc2)c2ccccc2)C(=O)[C@H](CCN)N1` [Compound 164, (E)-N-(2-((3S,5S)-3-(2-aminoethyl)-1-(2,2-diphenylethyl)-2-oxo-1,4-diazepan-5-yl)propan-2-yl)-3-(4-chlorophenyl)acrylamide], the pIC50 is more than 5.00.

As to `NC[C@@H]1N[C@H](CNC(=O)c2ccc(Cl)c(Cl)c2)CCN(Cc2cc(Cl)cc(Cl)c2)C1=O` [Compound 148, N-(((3S,5S)-3-(aminomethyl)-1-(3,5-dichlorobenzyl)-2-oxo-1,4-diazepan-5-yl)methyl)-3,4-dichlorobenzamide], the pIC50 is more than 5.00.

Regarding `NC[C@@H]1N[C@H](CNC(=O)c2ccc3ccccc3c2)CCN(Cc2cc(Cl)cc(Cl)c2)C1=O` [Compound 149, N-(((3S,5S)-3-(aminomethyl)-1-(3,5-dichlorobenzyl)-2-oxo-1,4-diazepan-5-yl)methyl)-2-naphthamide], the pIC50 was more than 5.00.

As for `CC[C@H](CN1CC[C@@H](CNC(=O)c2ccc3cc(Cl)ccc3c2)N[C@@H](CC(C)(C)N2CCCCC2)C1=O)c1ccccc1` [Compound 171, 6-chloro-N-(((3S,5S)-3-(2-methyl-2-(piperidin-1-yl)propyl)-2-oxo-1-((S)-2-phenylbutyl)-1,4-diazepan-5-yl)methyl)-2-naphthamide], the pIC50 is more than 6.00.

As for `CC[C@H](CN1CC[C@@H](CNC(=O)c2ccc(-c3ccccc3)cc2)N[C@@H](CCN2CCCCC2)C1=O)c1ccccc1` [Compound 177, N-(((3S,5S)-2-oxo-1-((S)-2-phenylbutyl)-3-(2-(piperidin-1-yl)ethyl)-1,4-diazepan-5-yl)methyl)biphenyl-4-carboxamide], the pIC50 was more than 5.00.

Turning to `N=C(N)NCCC[C@@H]1N[C@H](CNC(=O)c2ccc3ccccc3c2)CCN(CC(c2ccccc2)c2ccccc2)C1=O` [Compound 107, N-(((3S,5S)-1-(2,2-diphenylethyl)-3-(3-guanidinopropyl)-2-oxo-1,4-diazepan-5-yl)methyl)-2-naphthamide], the pIC50 is more than 5.00.

For the molecule `CNC(=O)[C@H](Cc1ccc2ccccc2c1)N1CC[C@H](CNC(=O)Cc2ccc(Cl)cc2)N[C@@H](CCCNC(=N)N)C1=O` [Compound 167, (S)-2-((3S,5R)-5-((2-(4-chlorophenyl)acetamido)methyl)-3-(3-guanidinopropyl)-2-oxo-1,4-diazepan-1-yl)-N-methyl-3-(naphthalen-2-yl)propanamide], the pIC50 is more than 5.00.

Turning to `NCCC[C@@H]1N[C@H](CNC(=O)c2ccc(-c3ccc(Cl)cc3)o2)CCN(CC(c2ccccc2)c2ccccc2)C1=O` [Compound 128], the pIC50 is more than 5.00.

For the molecule `CC(C)c1ccc(/C=C/C(=O)NC[C@@H]2CCN(CC(c3ccccc3)c3ccccc3)C(=O)[C@H](CCN3CCCCC3)N2)cc1` [Compound 155, (E)-N-(((3S,5S)-1-(2,2-diphenylethyl)-2-oxo-3-(2-(piperidin-1-yl)ethyl)-1,4-diazepan-5-yl)methyl)-3-(4-isopropylphenyl)acrylamide], the pIC50 was more than 5.00.

As for `NCC[C@@H]1N[C@H](CNC(=O)c2ccc(Cl)c(Cl)c2)CCN(Cc2cc(Cl)cc(Cl)c2)C1=O` [Compound 140, N-(((3S,5S)-3-(2-aminoethyl)-1-(3,5-dichlorobenzyl)-2-oxo-1,4-diazepan-5-yl)methyl)-3,4-dichlorobenzamide], the pIC50 is more than 5.00.

In the case of `CC(C)(C)c1ccc(C(=O)NC[C@@H]2CCN(CC(c3ccccc3)c3ccccc3)C(=O)[C@H](CCCNC(=N)N)N2)cc1` [Compound 114, 4-tert-butyl-N-(((3S,5S)-1-(2,2-diphenylethyl)-3-(3-guanidinopropyl)-2-oxo-1,4-diazepan-5-yl)methyl)benzamide], the pIC50 is more than 5.00.

Consider `CC[C@@H](CN1CC[C@H](CNC(=O)c2ccc3cc(Cl)ccc3c2)N[C@H](CCN2CCCCC2)C1=O)c1ccccc1` [Compound 182, 6-chloro-N-(((3R,5R)-2-oxo-1-((R)-2-phenylbutyl)-3-(2-(piperidin-1-yl)ethyl)-1,4-diazepan-5-yl)methyl)-2-naphthamide], for which the pIC50 was more than 5.00.

In the case of “N-(((3R,5R)-3-(2-amino-2-methylpropyl)-2-oxo-1-((S)-2-phenylbutyl)-1,4-diazepan-5-yl)methyl)-6-chloro-2-naphthamide [Compound 169]”, the pIC50 was more than 5.00.
